The values that follow come from paper PMC5962959 (ChemMedChem, 2017).

Each structure is given as a SMILES string.

The target of one test is T1, full-length human TSSK2 (Homo sapiens, UniProt Q96PF2).
T1 sequence (Q96PF2 1-358): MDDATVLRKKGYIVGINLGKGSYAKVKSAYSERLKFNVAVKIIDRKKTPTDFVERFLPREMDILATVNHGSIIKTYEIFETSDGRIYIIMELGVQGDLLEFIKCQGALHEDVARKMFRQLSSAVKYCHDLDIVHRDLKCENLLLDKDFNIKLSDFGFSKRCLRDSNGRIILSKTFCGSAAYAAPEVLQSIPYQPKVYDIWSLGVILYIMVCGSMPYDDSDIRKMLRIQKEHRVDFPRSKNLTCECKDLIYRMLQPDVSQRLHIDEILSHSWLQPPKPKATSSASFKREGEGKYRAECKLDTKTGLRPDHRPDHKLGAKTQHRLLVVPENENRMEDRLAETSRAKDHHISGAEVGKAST
Nature of the test: Mobility shift assay: TSSK2 phosphorylation of 5-FAM-GS peptide. It counts as biochemical. Particulars: for TSSK2 inhibitor confirmed in concentration-response experiments after HTS: HTS at 10 μM, cherry-picked compounds from DMSO stocks; for fold reduction in TSSK2 activity: relative to compound 18.

Test [1] deals with kinases (PKIS profiling panel). Particulars: at 100 nM; ref profiling data provided by GSK supporting the PKIS collections; cited from earlier work.
For test [2], the system named is insulin-like growth factor 1 receptor (IGF-1R). Nature of the test: Reported IGF-1R inhibition. In kind it is biochemical.
The next test relates to GRK1. Nature of the test: Reported GRK inhibition. It counts as biochemical. The following applies: GRK data ref 10d.
In test [3] the test system is insulin-like growth factor 1 receptor (IGF-1R). The following applies: cited from earlier work.
The target of test [4] is focal adhesion kinase (FAK). Particulars: patent literature, Supplementary Table 2; ref 13p; cited from earlier work.
The test system of another test is TSSK3. In words: TSSK family member inhibition, TSSK3. It counts as biochemical.
For another test, the target named is TSSK6 (Homo sapiens, UniProt Q9BXA6). Nature of the test: TSSK family member inhibition, TSSK6. It counts as biochemical.
A further test deals with T2, TSSK1 (Homo sapiens, UniProt Q9BXA7).
T2 sequence (Q9BXA7 1-367): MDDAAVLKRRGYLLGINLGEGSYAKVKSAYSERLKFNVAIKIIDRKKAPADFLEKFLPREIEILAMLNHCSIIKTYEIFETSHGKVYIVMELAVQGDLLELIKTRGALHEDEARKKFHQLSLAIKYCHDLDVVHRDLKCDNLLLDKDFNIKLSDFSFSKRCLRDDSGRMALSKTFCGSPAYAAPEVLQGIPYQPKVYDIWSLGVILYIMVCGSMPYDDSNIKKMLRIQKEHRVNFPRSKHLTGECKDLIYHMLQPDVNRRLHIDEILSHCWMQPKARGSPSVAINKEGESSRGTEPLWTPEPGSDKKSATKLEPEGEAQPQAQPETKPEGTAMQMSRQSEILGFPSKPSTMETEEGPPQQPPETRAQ
Nature of the test: TSSK family member inhibition, TSSK1. In kind it is biochemical.

The next test has as its system 369 wild-type kinases. Nature of the test: Kinome profiling at Reaction Biology Corp. It counts as biochemical. Particulars: 100 nM.
The next test has as its system Tie2. The following applies: ref 13b; cited from earlier work.
In test [5] the test system is anaplastic lymphoma kinase (ALK). Particulars: cited from earlier work.
In a further test the test system is LRRK2. Particulars: ref 13c; cited from earlier work.
Another test deals with FLT3. Particulars: ref 13b; cited from earlier work.
For the next test, the system named is LTK. Particulars: read-out: LTK IC50; Supplementary Table 2; ref 13a; cited from earlier work.
The test system of the next test is CLK2. Particulars: read-out: CLK2 IC50; Supplementary Table 2; ref 13a; cited from earlier work.
In another test the target is insulin receptor. The following applies: read-out: insulin receptor IC50; Supplementary Table 2; ref 13a; cited from earlier work.

Sequence of TSSK6 (Q9BXA6 whole entry): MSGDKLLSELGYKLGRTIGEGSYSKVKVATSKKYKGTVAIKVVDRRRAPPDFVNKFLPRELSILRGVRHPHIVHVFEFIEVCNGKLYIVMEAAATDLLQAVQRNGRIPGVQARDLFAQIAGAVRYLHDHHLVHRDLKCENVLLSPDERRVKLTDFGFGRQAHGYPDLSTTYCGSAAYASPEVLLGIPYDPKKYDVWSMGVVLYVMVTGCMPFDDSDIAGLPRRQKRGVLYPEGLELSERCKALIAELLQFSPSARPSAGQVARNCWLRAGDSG

Turning to `O=c1[nH]c2ccc(Cl)cc2c(N[C@@H]2CN3CCC2CC3)c1-c1nc2ccccc2[nH]1` [CHIR-124], the “TSSK2 inhibitor confirmed in concentration-response experiments after HTS” value (from here on “TSSK2 inhibitor confirmed”) at full-length human TSSK2 was “active”.

As for `COc1cc2c(cc1Nc1nc(Nc3ccsc3C(N)=O)c3cc[nH]c3n1)N(C(=O)CN(C)C)CCC2(C)C` [Compound 10], in test [1], the “number of kinases inhibited by > 50%” value is given as 15 – 20. In addition, the “fold more potent inhibitors of IGF-1 than of TSSK2” value in test [2] was no less than 100 fold. Further, the “fold selective for TSSK2 over GRK1” value in the test with GRK1 was greater than 5 fold.

`CNS(=O)(=O)c1ccccc1Nc1nc(Nc2ccc(N3CCN(C)CC3)cc2OC)ncc1Br` [Compound 17]: the “potency for inhibiting IGF-1R” value in test [3] (compared with FAK, ref 13p) is on record as “substantially less potent”. Also, in test [4], the “FAK IC50” value was “low nanomolar”.

For `CNS(=O)(=O)c1ccccc1Nc1nc(Nc2ccc(N3CCN(C)CC3)cc2OC)ncc1Cl` [Compound 18], in test [4], the “FAK IC50” value was “low nanomolar”.

Turning to `CNS(=O)(=O)c1ccccc1Nc1nc(Nc2ccc(C3CCN(C)CC3)cc2OC)ncc1Cl` [Compound 19, 2-[[5-chloro-2-[2-methoxy-4-(1-methylpiperidin-4-yl)anilino]pyrimidin-4-yl]amino]-N-methylbenzenesulfonamide], the “fold more potent at TSSK1 than TSSK3” value with TSSK3 is 800 fold. At TSSK6, the “activity at TSSK6” value was “almost inactive” and the “fold selective for TSSK1 over TSSK6” value is on record as ~100,000 fold. Moreover, on TSSK1, the “fold more potent at inhibiting TSSK1 than TSSK2” value is on record as greater than 40 fold and the “rank order potency at TSSK isoforms” value is “TSSK1 > TSSK2 > TSSK3 > TSSK6”. The “number of 369 kinases inhibited to a greater extent than TSSK2” value in the test with 369 wild-type kinases came to 62. Besides, on full-length human TSSK2, the “fold reduction in TSSK2 activity” value is recorded as less than 2 fold.

On to `COc1cc(N2CCC(N3CCN(C)CC3)CC2)ccc1Nc1ncc(Cl)c(Nc2ccccc2S(=O)(=O)C(C)C)n1` [Compound 22], for which the “activity at Tie2” value in the test on Tie2 is on record as “low nanomolar”. Further, the “activity at ALK” value in test [5] is listed as “low nanomolar”. The “activity at LRRK2” value in the test on LRRK2 is reported as “low nanomolar”. In the test with FLT3, the “activity at FLT3” value is “low nanomolar”. Besides, the “fold reduction in TSSK2 activity” value at full-length human TSSK2 is ~ 2 fold.

In the case of `COc1cc(N2CCC(O)CC2)ccc1Nc1nc(Nc2ccccc2S(=O)(=O)C(C)C)c2[nH]cnc2n1` [Compound 35], the IC50 in test [3] (read-out: IGF-1R IC50, Supplementary Table 2, ref 13a) is 20 to 40 nM; with LTK, 20 to 40 nM; in the test with CLK2 it was 20 to 40 nM; on insulin receptor, 20 to 40 nM.

For the molecule `CCn1c(-c2nonc2N)nc2c(C#CC(C)(C)O)nc(O[C@@H](CN)c3ccccc3)cc21` [GSK1007102B], the “TSSK2 inhibitor confirmed” value on full-length human TSSK2 is given as “active”.

With `CC(=O)NCC(=O)N1[C@@H]2CC[C@H]1c1ccc(Nc3ncc(C(F)(F)F)c(NC4CCC4)n3)cc12` [PF-03814735], the “TSSK2 inhibitor confirmed” value on full-length human TSSK2 is on record as “active”.

In the case of `COc1ccc([C@@H]2CC(=O)c3c(O)cc(O[C@@H]4O[C@H](CO[C@@H]5O[C@@H](C)[C@H](O)[C@@H](O)[C@H]5O)[C@@H](O)[C@H](O)[C@H]4O)cc3O2)cc1O` [hesperidin], on full-length human TSSK2, the “TSSK2 inhibitor confirmed” value is “active”.
